Read-outs that look alike come from different tables or passages of the source.
Experiments:
[1] = system: human hepatocytes; experiment: cell viability (MTS) after CYP induction treatment of human hepatocytes; conditions: after CYP1A2 induction treatment
Protocol: Cell Viability Assay: After the CYP induction treatment and enzyme activity assay, the cells were used for a cell viability assay. The viability of cells, expressed as the percentage of MTS absorbance relative to vehicle control, was measured as described above.

[2] = biological target: CYP2C9 (Homo sapiens, UniProt P11712); experiment: CYP inhibition in human liver microsomes; assay type: in vitro ADME; parameters: from tissue; host or cells: pooled human liver microsomes, 200 donors; conditions: both sexes, pooled human liver microsomes, pH 7.4, HLM, read-out: % of Control Enzyme Activity
Chain of CYP2C9 (P11712 whole entry): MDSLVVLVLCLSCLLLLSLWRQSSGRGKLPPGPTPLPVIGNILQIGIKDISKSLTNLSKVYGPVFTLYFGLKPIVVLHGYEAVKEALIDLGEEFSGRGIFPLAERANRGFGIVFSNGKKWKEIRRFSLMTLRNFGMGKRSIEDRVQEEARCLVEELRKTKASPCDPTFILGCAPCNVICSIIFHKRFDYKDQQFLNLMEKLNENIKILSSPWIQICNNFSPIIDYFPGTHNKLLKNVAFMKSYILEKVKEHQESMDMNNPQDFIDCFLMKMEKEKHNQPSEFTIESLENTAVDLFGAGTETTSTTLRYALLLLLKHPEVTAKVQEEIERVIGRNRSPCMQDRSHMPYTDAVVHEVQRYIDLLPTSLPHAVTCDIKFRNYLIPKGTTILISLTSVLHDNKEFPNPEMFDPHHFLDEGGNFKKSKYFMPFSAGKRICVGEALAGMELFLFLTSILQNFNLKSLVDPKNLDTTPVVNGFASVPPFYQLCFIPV
Protocol: The HLMs were stored at −80° C. until use.
Negative (vehicle) controls were conducted without a test article.

[3] = system: CYP enzymes in human liver microsomes; conditions: HLM, probe S-Mephenytoin 25 μM
Protocol: Pooled HLM were stored at −80° C. until use. […] The reaction was initiated by adding NADPH, followed by incubation at 37° C.
Corrected CLint=Raw CLint−Negative Control CLint; Δ CLint=CLHint(TA+NADPH−Inhibitor)−CLint (TA+NADPH+Inhibitor).

[4] = biological target: T1, OATP1B1 (Homo sapiens, UniProt Q9Y6L6); experiment: uptake transporter inhibition assessment, transfected HEK293; conditions: inhibitor 10 μM
T1 sequence (Q9Y6L6 1-691): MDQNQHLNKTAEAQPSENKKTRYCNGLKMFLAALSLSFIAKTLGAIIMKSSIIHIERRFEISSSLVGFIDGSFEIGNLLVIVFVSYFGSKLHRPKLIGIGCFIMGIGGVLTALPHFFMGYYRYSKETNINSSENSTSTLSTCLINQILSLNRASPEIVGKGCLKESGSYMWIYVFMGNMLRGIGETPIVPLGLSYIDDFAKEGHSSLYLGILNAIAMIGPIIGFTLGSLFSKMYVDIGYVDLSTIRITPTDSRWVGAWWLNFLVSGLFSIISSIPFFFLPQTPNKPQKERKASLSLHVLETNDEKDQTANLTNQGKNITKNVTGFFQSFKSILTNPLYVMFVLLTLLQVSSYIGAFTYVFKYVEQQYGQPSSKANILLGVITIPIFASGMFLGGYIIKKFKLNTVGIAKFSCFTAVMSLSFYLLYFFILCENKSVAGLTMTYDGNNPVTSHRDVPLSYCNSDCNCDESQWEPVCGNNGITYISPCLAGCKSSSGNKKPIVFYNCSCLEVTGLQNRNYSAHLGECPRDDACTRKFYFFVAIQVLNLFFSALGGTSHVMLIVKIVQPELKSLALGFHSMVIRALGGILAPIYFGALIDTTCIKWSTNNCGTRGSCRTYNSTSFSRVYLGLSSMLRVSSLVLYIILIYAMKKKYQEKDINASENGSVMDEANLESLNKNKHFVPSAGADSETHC

[5] = biological target: T2, OATP1B3 (Homo sapiens, UniProt Q9NPD5); experiment: as above; conditions: inhibitor 10 μM
T2 sequence (Q9NPD5 1-702): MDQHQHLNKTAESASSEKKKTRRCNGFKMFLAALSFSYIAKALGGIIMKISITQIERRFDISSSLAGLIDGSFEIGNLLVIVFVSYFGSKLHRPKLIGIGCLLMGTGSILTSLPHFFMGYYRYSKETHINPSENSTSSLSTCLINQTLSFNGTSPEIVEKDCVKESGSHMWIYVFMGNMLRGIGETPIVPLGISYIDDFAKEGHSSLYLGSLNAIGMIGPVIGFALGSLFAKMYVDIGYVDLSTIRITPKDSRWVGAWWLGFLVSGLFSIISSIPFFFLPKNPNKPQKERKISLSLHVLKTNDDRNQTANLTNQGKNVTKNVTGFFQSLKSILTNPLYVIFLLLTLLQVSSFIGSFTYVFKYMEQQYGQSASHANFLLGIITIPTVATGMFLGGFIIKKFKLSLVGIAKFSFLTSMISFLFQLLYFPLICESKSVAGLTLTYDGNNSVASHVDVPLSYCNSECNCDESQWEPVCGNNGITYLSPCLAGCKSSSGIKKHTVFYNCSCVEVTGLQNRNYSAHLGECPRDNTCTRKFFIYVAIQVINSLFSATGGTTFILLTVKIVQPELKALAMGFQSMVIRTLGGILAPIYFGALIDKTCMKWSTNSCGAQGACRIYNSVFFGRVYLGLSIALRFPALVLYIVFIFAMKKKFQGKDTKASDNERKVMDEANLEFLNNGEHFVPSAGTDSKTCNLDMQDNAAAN

[6] = biological target: T3, CYP2C8 (Homo sapiens, UniProt P10632); experiment: in vitro; conditions: both, microsomes, pH 7.4
T3 sequence (P10632 1-490): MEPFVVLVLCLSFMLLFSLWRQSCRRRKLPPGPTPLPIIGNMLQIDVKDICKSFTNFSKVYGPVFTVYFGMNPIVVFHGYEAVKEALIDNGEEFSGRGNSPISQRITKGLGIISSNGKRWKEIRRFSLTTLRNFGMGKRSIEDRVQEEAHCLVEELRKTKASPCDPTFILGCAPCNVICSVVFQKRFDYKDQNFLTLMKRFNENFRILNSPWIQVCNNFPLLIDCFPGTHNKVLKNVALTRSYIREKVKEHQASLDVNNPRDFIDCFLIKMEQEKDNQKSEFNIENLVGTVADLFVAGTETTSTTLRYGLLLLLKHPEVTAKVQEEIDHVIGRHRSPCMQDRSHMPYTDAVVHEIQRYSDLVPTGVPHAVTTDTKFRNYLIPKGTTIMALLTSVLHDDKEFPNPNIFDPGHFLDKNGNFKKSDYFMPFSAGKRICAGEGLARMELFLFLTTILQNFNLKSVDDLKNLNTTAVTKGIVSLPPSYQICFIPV

[7] = biological target: T4, OCT2 (Homo sapiens, UniProt O15244); conditions: 2 min/5 μM
T4 sequence (O15244 1-555): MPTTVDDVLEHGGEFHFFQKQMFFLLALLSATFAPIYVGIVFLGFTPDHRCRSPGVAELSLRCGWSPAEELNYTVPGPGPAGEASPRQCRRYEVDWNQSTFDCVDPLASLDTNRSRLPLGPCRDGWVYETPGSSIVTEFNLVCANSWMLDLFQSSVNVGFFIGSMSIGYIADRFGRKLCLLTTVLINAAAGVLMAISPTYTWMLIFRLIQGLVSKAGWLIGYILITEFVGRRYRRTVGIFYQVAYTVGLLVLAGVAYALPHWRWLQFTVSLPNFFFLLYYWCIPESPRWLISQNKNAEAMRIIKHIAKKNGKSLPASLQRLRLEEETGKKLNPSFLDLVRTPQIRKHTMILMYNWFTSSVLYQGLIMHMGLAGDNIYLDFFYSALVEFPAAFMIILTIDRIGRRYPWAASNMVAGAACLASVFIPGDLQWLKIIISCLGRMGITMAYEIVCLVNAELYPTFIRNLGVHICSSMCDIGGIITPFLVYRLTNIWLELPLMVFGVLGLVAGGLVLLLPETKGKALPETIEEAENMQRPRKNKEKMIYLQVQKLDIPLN
Protocol: All experiments were conducted in duplicate (n=2). The cells were incubated for the indicated time in a humidified incubator (37° C. 5% CO2). […] The uptake incubation was stopped by two washes with ice-cold HBSSg.

[8] = biological target: CYP2D6 (Homo sapiens, UniProt P10635); experiment: CYP inhibition in human liver microsomes; assay type: in vitro ADME; parameters: from tissue; host or cells: pooled human liver microsomes, 200 donors; conditions: both sexes, pooled human liver microsomes, pH 7.4, HLM, read-out: % of Control Enzyme Activity
Chain of CYP2D6 (P10635 whole entry): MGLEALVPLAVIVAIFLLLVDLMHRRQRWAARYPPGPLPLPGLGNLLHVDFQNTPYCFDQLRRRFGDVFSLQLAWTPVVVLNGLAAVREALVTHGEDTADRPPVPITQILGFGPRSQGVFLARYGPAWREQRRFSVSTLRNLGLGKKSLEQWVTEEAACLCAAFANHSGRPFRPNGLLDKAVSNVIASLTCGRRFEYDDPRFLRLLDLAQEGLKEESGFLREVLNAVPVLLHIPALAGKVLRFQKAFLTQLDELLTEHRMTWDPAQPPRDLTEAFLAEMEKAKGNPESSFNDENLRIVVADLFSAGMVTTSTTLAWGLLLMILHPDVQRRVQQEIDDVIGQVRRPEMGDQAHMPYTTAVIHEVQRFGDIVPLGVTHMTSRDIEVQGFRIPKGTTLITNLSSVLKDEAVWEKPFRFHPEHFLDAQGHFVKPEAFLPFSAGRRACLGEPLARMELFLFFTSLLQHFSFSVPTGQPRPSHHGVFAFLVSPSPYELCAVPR

[9] = system: p53 in SJSA1; experiment: p53 (DO-1) Western blot; assay type: cell-based, human; conditions: SJSA1 + RG7388 50 nM, 24 hr
Protocol: (§1) Protein samples were quantified using BCA.
(§2) Western blot: For each cell line, 10 μg of total protein were run on a 4-12% Bis-Tris precast gel. The gel was transferred to a nitrocellulose membrane. The membrane was blocked for 1 hour using the Odyssey TBS blocking solution. Membranes were incubated overnight in p53 (p53, DO-1) and actin (beta-actin) primary antibodies. The next day, blots were washed and incubated in either goat anti-mouse for p53 or goat-anti-rabbit for actin secondaries antibodies. Blots were then washed and imaged using an Odyssey CLx imaging system. Bands were quantified using Image Studio software and normalized to the actin control. The p53 or actin levels were then normalized to the NUGC3 band and graphed using Prism.
(§3) Since p53 protein pools are strongly autoregulated by degradation by the transcriptional target MDM2, pools of p53 accumulate to high levels in cells with mutant p53.

[10] = system: p53 in HCT116; experiment: p53 (DO-1) Western blot; assay type: cell-based, human; conditions: HCT116 + RG7388 50 nM, 24 hr
Protocol: as §1, §2, §3

[11] = +NADPH −Inhibitor, Maximum Metabolism
[12] = −NADPH −Inhibitor, Negative Control

SMILES: COc1ccc2[nH]c([S+]([O-])Cc3ncc(C)c(OC)c3C)nc2c1 (stereo not shown) [OME]
- Formazan Absorbance (n = 3) Mean ([1]; Donor 1, 50 μM): 0.494
- Formazan Absorbance (n = 3) Mean ([1]; Donor 2, 50 μM): 0.800
- Formazan Absorbance (n = 3) Mean ([1]; Donor 3, 50 μM): 0.433

SMILES: Nc1ccc(S(=O)(=O)Nc2ccnn2-c2ccccc2)cc1 [Sulfaphenazole, sulfaphenazole]
- activity at 20 min, 0.123 µM ([2]; 0.123 μM): 76.9%
- activity at 20 min, 0.37 µM ([2]; 0.370 μM): 55.4%
- activity at 20 min, 3.33 µM ([2]; 3.33 μM): 16.3%
- activity at 20 min, 10 µM ([2]; 10.0 μM): 7.69%

SMILES: CC[C@@]1(c2ccccc2)NC(=O)N(C)C1=O [S-Mephenytoin]
- Formation Rate (4′-OH Mephenytoin) [3, 11]: 39.8 pmol/min/mg protein
- Measured Metabolite (4′-OH Mephenytoin) [3, 11]: 0.398 µM
- Formation Rate (4′-OH Mephenytoin) [3, 12]: 0 pmol/min/mg protein
- Measured Metabolite (4′-OH Mephenytoin) [3, 12]: 0 µM

SMILES: CO[C@H]1/C=C/O[C@@]2(C)Oc3c(C)c([O-])c4c(O)c(cc(O)c4c3C2=O)NC(=O)/C(C)=C\C=C\[C@H](C)[C@H](O)[C@@H](C)[C@@H](O)[C@@H](C)[C@H](OC(C)=O)[C@@H]1C.[Na+] [Rifamycin SV]
- Inhibition Potential Classification [4]: Positive (Percent inhibition≥50%: Positive)
- Percent Inhibition ([4]; probe Atorvastatin ([…])): 94.8
- Influx Rate AVG ([4]; probe Atorvastatin ([…]), OATP1B1-transfected HEK cells): 1.12 pmol/minute/mg protein
- Influx Rate AVG ([4]; probe Atorvastatin ([…]), Vector Control cells): 0.769 pmol/minute/mg protein
- Inhibition Potential Classification [5]: Positive (Percent inhibition≥50%: Positive)
- Percent Inhibition ([5]; probe atorvastatin (0.1 μM per TABLE 176)): 94.8
- Influx Rate AVG ([5]; probe atorvastatin (0.1 μM per TABLE 176), OATP1B3-transfected HEK cells): 0.991 pmol/minute/mg protein
- Influx Rate AVG ([5]; probe atorvastatin (0.1 μM per TABLE 176), Vector Control cells): 0.769 pmol/minute/mg protein

SMILES: CC(C)(O)c1ccccc1CC[C@@H](SCC1(CC(=O)O)CC1)c1cccc(/C=C/c2ccc3ccc(Cl)cc3n2)c1 [Montelukast, montelukast]
- activity at 20 min, 0.123 µM [6]: 54%
- activity at 20 min, 0.37 µM [6]: 26.8%
- activity at 20 min, 3.33 µM [6]: 4.22%
- activity at 20 min, 10 µM [6]: 2.17%

SMILES: C[n+]1ccc(-c2ccccc2)cc1 [MPP, MPP+]
- Substrate Assessment [7]: Positive (Influx Rate Ratio≥2.0: Positive)
- Influx Rate AVG ([7]; OCT2 cells): 403 pmol/minute/mg/protein
- Influx Rate Ratio ([7]; OCT2 vs Vector Control): 16.6
- Influx Rate AVG ([7]; Vector Control cells): 24.3 pmol/minute/mg/protein

SMILES: C=C[C@H]1C[N@@]2CC[C@H]1C[C@@H]2[C@@H](O)c1ccnc2ccc(OC)cc12 [Quinidine, quinidine]
- activity at 20 min, 0.123 µM ([8]; 0.123 μM): 30.6%
- activity at 20 min, 0.37 µM ([8]; 0.370 μM): 17.7%
- activity at 20 min, 3.33 µM ([8]; 3.33 μM): 8.69%
- activity at 20 min, 10 µM ([8]; 10.0 μM): 7.28%

SMILES: COc1cc(C(=O)O)ccc1NC(=O)[C@@H]1N[C@@H](CC(C)(C)C)[C@](C#N)(c2ccc(Cl)cc2F)[C@H]1c1cccc(Cl)c1F [RG7388]
- DO1/Actin [9]: 0.008
- DO1 band density [9]: 94.5
- normalized DO1/Actin ([9]; normalized to NUGC3): 0.068
- DO1/Actin [10]: 0.065
- DO1 band density [10]: 1300
- normalized DO1/Actin ([10]; normalized to NUGC3): 0.524
